Test results taken from PubChem BioAssay (NCI).
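Values below derive from 48-hour exposures of cells grown in 96-well plates, with endpoints linearly interpolated between the two concentrations bracketing the appropriate inhibition level. Abbreviation: GI50, concentration required for 50% inhibition of growth. TGI is the concentration that stops growth completely.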

Tests used:
Experiment in all cases: DTP human tumour cell line panel, 48 h
[1] = tested on: HL-60(TB) leukemia
[2] = tested on: SN12C renal
[3] = tested on: ACHN renal
[4] = tested on: CAKI-1 renal
[5] = tested on: NCI-H23 lung
[6] = tested on: OVCAR-8 ovarian
[7] = tested on: EKVX NSCLC
[8] = tested on: DU-145 prostate
[9] = tested on: NCI-H460 lung
[10] = tested on: MDA-MB-435
[11] = tested on: MOLT-4 leukemia
[12] = tested on: RPMI-8226 leukemia
[13] = tested on: SK-MEL-5 melanoma
[14] = tested on: SF-295 CNS
[15] = tested on: HCC-2998 colon
[16] = tested on: SW-620 colon
[17] = tested on: TK-10 renal
[18] = tested on: SK-MEL-28 melanoma
[19] = tested on: K-562 leukemia
[20] = tested on: U251 CNS
[21] = tested on: HOP-62 NSCLC
[22] = tested on: SK-MEL-2 melanoma
[23] = tested on: IGROV1 ovarian
[24] = tested on: MDA-MB-231 breast
[25] = tested on: SR leukemia
[26] = tested on: HS 578T breast
[27] = tested on: MALME-3M melanoma
[28] = tested on: SF-539 CNS
[29] = tested on: A549 NSCLC

**Q.** What does the source list for `O=C(CI)Nc1ccc(O)c2ccccc12`?
**A.** GI50 [1]: 1610 nM; TGI [1]: 4790 nM; GI50 [2]: 1610 nM; TGI [2]: 3300 nM; GI50 [3]: 1490 nM; TGI [3]: 2840 nM; GI50 [4]: 690 nM; TGI [4]: 1840 nM; GI50 [5]: 1670 nM; TGI [5]: 3690 nM; GI50 [6]: 1930 nM; TGI [6]: 7150 nM; GI50 [7]: 2520 nM; TGI [7]: 8590 nM; GI50 [8]: 1880 nM; TGI [8]: 3870 nM; GI50 [9]: 2130 nM; TGI [9]: 4710 nM; GI50 [10]: 1900 nM; TGI [10]: 4340 nM; GI50 [11]: 846 nM; TGI [11]: 8180 nM; GI50 [12]: 1650 nM; TGI [12]: 4610 nM; GI50 [13]: 1630 nM; TGI [13]: 3080 nM; GI50 [14]: 3380 nM; TGI [14]: 11300 nM; GI50 [15]: 2130 nM; TGI [15]: 4910 nM; GI50 [16]: 282 nM; TGI [16]: 886 nM; GI50 [17]: 1720 nM; TGI [17]: 3750 nM; GI50 [18]: 1780 nM; TGI [18]: 3740 nM; GI50 [19]: 328 nM; TGI [19]: > 100000 nM; GI50 [20]: 1570 nM; TGI [20]: 3110 nM; GI50 [21]: 2270 nM; TGI [21]: 5140 nM; GI50 [22]: 2930 nM; TGI [22]: 9220 nM; GI50 [23]: 296 nM; TGI [23]: 926 nM; GI50 [24]: 2590 nM; TGI [24]: 6690 nM; GI50 [25]: 726 nM; TGI [25]: 3750 nM; GI50 [26]: 2450 nM; TGI [26]: 8490 nM; GI50 [27]: 547 nM; TGI [27]: 1160 nM; GI50 [28]: 1800 nM; TGI [28]: 4470 nM; GI50 [29]: 3560 nM
